Experimental data from PubChem BioAssay (NCI).
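Test compounds were applied to cells in 96-well plates for 48 hours at 5 doses. GI50 marks 50% less growth. The concentration for full growth arrest is given as TGI.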

Legend:
Experiment in all cases: growth of human tumour cells (NCI), 48 h
[1] = tested on: 786-0 renal
[2] = tested on: HCT-116 colon
[3] = tested on: HCT-15 colon
[4] = tested on: KM12 colon
[5] = tested on: LOX IMVI melanoma
[6] = tested on: M14 melanoma
[7] = tested on: NCI-H23 lung
[8] = tested on: OVCAR-8 ovarian
[9] = tested on: SN12C renal
[10] = tested on: SW-620 colon

SMILES	TGI [1] [µM]	TGI [2] [µM]	TGI [3] [µM]	TGI [4] [µM]	TGI [5] [µM]	TGI [6] [µM]	TGI [7] [µM]	TGI [8] [µM]	TGI [9] [µM]	TGI [10] [µM]	GI50 [1] [µM]	GI50 [2] [µM]	GI50 [3] [µM]	GI50 [4] [µM]	GI50 [5] [µM]	GI50 [6] [µM]	GI50 [7] [µM]	GI50 [8] [µM]	GI50 [9] [µM]	GI50 [10] [µM]
NS(=O)(=O)c1ccc(NC(=O)COC(=O)c2cccc3c(=O)c4ccccc4[nH]c23)cc1	45.3	> 74.9	> 100	> 85.5	43	> 100	60.5	65.8	90	> 100										
COc1ccc(/C=N/N=C(\[O-])c2ccncc2)cc1F.COc1ccc(/C=N\N=C(/[O-])c2ccncc2)cc1F.[Cu+2]	44.3	> 100	> 100	39	> 100	> 100	58.2	27.5	> 100	> 100	20.2	27	52.6	16.2	68.8	47.2	25.4	13.8	40.4	35.7
O=C(/C(=C/c1ccccc1)c1ccccc1)N1c2ccccc2CC1c1c[nH]c2ccccc12 (stereo not given)	> 100	> 100	> 100	> 100	> 100	> 100	> 100	> 100	> 100	> 100										
CCOC(=O)NC(=O)c1c[nH]c(=O)[nH]c1=O	> 100	> 100	> 100	> 100	> 100	> 100	> 100	> 100	> 100	> 100										
CC1=C(C(=O)Nc2ccccc2)C(c2ccc(C(C)C)cc2)C(C(=O)Nc2ccccc2)=C(C)N1	30.2	27	61.4	77.8	30.4	55.9	> 58.5	> 66.3	27.8	41.5										
